Experimental data taken from PMC4812144, “Flavonolignans As a Novel Class of Sodium Pump Inhibitors” (Frontiers in Physiology, 2016).

Legend:
[1] = Solubility (qualitative remarks); format: physicochemical; details: NKA activity assay
[2] = molecular target: T1, Na+/K+-ATPase (NKA) (Sus scrofa, UniProt P05024); assay: Ouabain-sensitive ATPase activity of NKA (Baginsky assay); format: biochemical, porcine; details: for n, Hill coefficient: fit of NKA inhibition curve to logistic function; for IC50: ouabain-sensitive ATPase activity, NKA from porcine kidney, 3 mM ATP, read-out: IC50 for inhibition of the NKA activity
T1 construct: The NKA was prepared from porcine kidney outer medulla; from tissue; host or cells: porcine kidney outer medulla
Description: The NKA was prepared from porcine kidney outer medulla using the method of Jorgensen and Klodos with some modifications (Jørgensen, [1988]; Klodos et al., [2002]; Kubala et al., [2014]). An isolated enzyme was pipetted into small aliquots and stored at −20°C in ISE buffer (25 mM imidazole, 250 mM sucrose, 1 mM EDTA, pH 7.4) containing SDS detergent. The molar concentration of isolated NKA was estimated using the Bradford method with consideration of MW(α + β) = 165,000 Da. The protein purity >90% was estimated from SDS-PAGE (Figure 2).
The measurements of NKA activity were performed using the Baginsky assay (Kubala et al., [2014]). The assay was performed in microwell plates in 4 replicates for each point and automated in the pipetting station Freedom EVO (Tecan, Switzerland).
(§1) The reaction buffer was composed of 325 mM NaCl, 50 mM KCl, 7.5 mM MgCl2, and 75 mM imidazole, pH 7.2. In the experiments where the K^+-dependence was estimated, the KCl concentration is ranging from 0 to 100 mM. The NKA (0.1 mg/mL) isolated from porcine kidney was mixed with reaction buffer without ATP. All inhibitors were solubilized in methanol immediately before the measurement and then premixed with the reaction buffer to the required concentration. Subsequently, 10 μL of inhibitor solution was added into 20 μL of enzyme solution and incubated for 2 min. In the control sample, only 10 μL of reaction buffer without inhibitor was added including corresponding amount of methanol. The reaction was started by the addition of ATP solution (20 μL, 7.5 mM in the stock, the final concentration in the reaction was 3 mM). The reaction proceeded for 6 min at room temperature and then was stopped by addition of 75 μL of staining solution, which was composed of 160 mM ascorbic acid, 3.7% (v/v) acetic acid, 3% (w/v) SDS, and 0.5% ammonium molybdate. The staining reaction was stopped after another 8 min by adding 125 μL of solution composed of 0.9% (w/v) bismuth citrate, 0.9% (w/v) sodium citrate and 3.7% HCl.
The Baginsky method detects a product of ATP hydrolysis, inorganic phosphate, which interacts with ammonium molybdate. The reaction results in a color change, which can be monitored as a change of absorbance at 710 nm, and was measured using microplate reader Synergy Mx (BioTek, USA). The calibration line was determined using KH2PO4 solutions, in […] concentration range.
(§2) The specific NKA activity is standardly estimated using the treatment by ouabain, which serves as a specific inhibitor of NKA. The ATPase activity decreases to less than 10% in the presence of 10 mM ouabain. This residual activity in the presence of ouabain was subtracted from the total estimated ATPase activity in ouabain-untreated samples, and all data are presented as the ouabain-sensitive ATPase activity. The IC50 values were obtained from fitting the data to the logistic function.

[3] = molecular target: T1, Na+/K+-ATPase (NKA); assay: K+/ouabain antagonism: ouabain inhibition of NKA activity with or without flavonolignan; format: biochemical, porcine; details: for K0.5(ouabain): in the presence of 40 μM flavonolignan; for IC50: K0.5(ouabain), no flavonolignan (row None)
Description: as §1, §2
(§3) We have tested influence of these three species on the ouabain inhibition and K^+-dependence of NKA activation. None of the species substantially influenced the IC50 for ouabain or the K^+/ouabain antagonism (Figure 5). The NKA activity is K^+-dependent and it increased with increasing concentration of potassium with K0.5(K^+) = 4.2 ± 0.6 mM.

[4] = molecular target: T1, Na+/K+-ATPase (NKA); assay: K+-dependence of NKA activity (K+-dependent activation); format: biochemical, porcine
Description: as §1, §3

[5] = molecular target: T2, large cytoplasmic segment C45 of NKA (C45 loop, residues L354-I777) (Mus musculus, UniProt Q8VDN2); assay: Fluorescence spectroscopy of interaction with isolated large cytoplasmic segment C45; format: binding; details: 5 μM species; for Fluorescence intensity increase in the presence of C45: 5 μM C45, pH 7.4, excitation 380 nm
T2 construct: (His)6-tag (N); made in house; host or cells: E. coli BL21
Description: The large cytoplasmic segment connecting the transmembrane helices 4 and 5 (C45 loop, residues L354-I777 of the mouse brain sequence) with a (His)6-tag at the N-terminus was expressed in E. coli BL21 (Promega, USA) and purified using a Co^2+-based affinity resin (Clontech, USA) as described previously (Grycova et al., [2009]). Immediately after elution, the protein was dialyzed into 20 mM Tris, 140 mM NaCl, pH 7.4 buffer and stored at −20°C.
Spectroscopic experiments were performed in 20 mM Tris, 140 mM NaCl, pH 7.4 buffer. SCH, DHSCH and DHSD as well as protein C45 were diluted to 5 μM concentration.
Fluorescence emission spectra were measured using Fluorolog-3 (Horiba Scientific, USA). The spectra were scanned with a step of 1 nm, both excitation- and emission bandpass 5 nm and integration time 1 s. For SCH, the excitation was 325 nm and emission was recorded in the 340–600 nm interval, for DHSCH and DHSD, the excitation wavelength was 380 nm and spectra were scanned in the 400–600 nm interval. Signal from pure buffer was subtracted as a background.

[6] = 40 mM KCl (value in parentheses)
[7] = in the presence of 40 μM flavonolignan

Row | Structure (SMILES) | Solubility limiting the examined concentration range [1] | n, Hill coefficient [2] | IC50 [2] | K0.5(ouabain) ([3]; 5 mM KCl) | K0.5(ouabain) [3, 6] | K0.5(K+) for K+-dependent activation of NKA [4, 7] | further results
1 | COc1cc(C2Oc3cc(-c4oc5cc(O)cc(O)c5c(=O)c4O)ccc3OC2CO)ccc1O (centres unmarked) [DHSB] | lower solubility | 0.5 ± 0.1 | 900 ± 800 µM | – | – | – | –
2 | COc1cc(C2Oc3c(O)cc(-c4oc5cc(O)cc(O)c5c(=O)c4O)cc3C2CO)ccc1O (centres unmarked) [DHSCH, dehydrosilychristin] | – | 0.8 ± 0.1 | 38 ± 8 µM | 1.5 ± 0.5 µM | 24 ± 6 µM | 4 ± 1 mM | Fluorescence intensity increase in the presence of C45 [5]: ca. 3 times
3 | COc1cc(C2C3C=C(c4oc5cc(O)cc(O)c5c(=O)c4O)C4C2COC4(O)C3=O)ccc1O (centres unmarked) [DHSD, dehydrosilydianin] | lower solubility | 0.6 ± 0.1 | 36 ± 14 µM | 3.3 ± 1.4 µM | 19 ± 7 µM | 3 ± 2 mM | Fluorescence intensity increase in the presence of C45 [5]: three-fold
4 | O=c1c(O)c(-c2ccc(O)c(O)c2)oc2cc(O)cc(O)c12 [QUE, quercetin] | – | – | > 1000 µM | – | – | – | –
5 | COc1cc(C2Oc3cc([C@H]4Oc5cc(O)cc(O)c5C(=O)[C@@H]4O)ccc3OC2CO)ccc1O (some centres unmarked) [SB, silybin] | lower solubility | – | > 1000 µM | – | – | – | –
6 | COc1cc(C2Oc3c(O)cc([C@H]4Oc5cc(O)cc(O)c5C(=O)[C@@H]4O)cc3C2CO)ccc1O (some centres unmarked) [SCH, silychristin] | – | 0.6 ± 0.1 | 110 ± 40 µM | 4.0 ± 1.7 µM | 18 ± 2 µM | 8 ± 5 mM | Fluorescence quantum yield increase in the presence of C45 compared to the free species ([5]; 5 μM C45, pH 7.4): more than 1000 times
7 | COc1cc([C@@H]2[C@H]3CO[C@@]4(O)C(=O)[C@@H]2C=C([C@H]2Oc5cc(O)cc(O)c5C(=O)[C@@H]2O)[C@@H]34)ccc1O [SD, silydianin] | lower solubility | – | > 1000 µM | – | – | – | –
8 | O=C1c2c(O)cc(O)cc2OC(c2ccc(O)c(O)c2)C1O (centres unmarked) [TAX, taxifolin] | – | – | > 1000 µM | – | – | – | –
9 | C[C@@H]1O[C@@H](O[C@H]2C[C@@H](O)[C@]3(CO)[C@H]4[C@H](O)C[C@]5(C)[C@@H](C6=CC(=O)OC6)CC[C@]5(O)[C@@H]4CC[C@]3(O)C2)[C@H](O)[C@H](O)[C@H]1O [ouabain, reference compound] | – | – | – | – | – | – | IC50 ([3]; 5 mM KCl): 2.6 ± 1.3 µM; IC50 [3, 6]: 23 µM; remaining activity at 10000 µM ([2]; read-out: ATPase activity remaining in the presence of ouabain): < 10%; K0.5(K+) for K+-dependent activation of NKA ([4]; in the presence of ouabain): 14.8 ± 0.1 mM
